# Assay results reported in US20250099448A1, “HETEROCYCLIC COMPOUNDS” (Hoffmann-La Roche Inc., priority 2022, published 2025).
# Molecular target: T1, MAGL protein (Homo sapiens, UniProt Q99685)
# T1 sequence (Q99685 1-303): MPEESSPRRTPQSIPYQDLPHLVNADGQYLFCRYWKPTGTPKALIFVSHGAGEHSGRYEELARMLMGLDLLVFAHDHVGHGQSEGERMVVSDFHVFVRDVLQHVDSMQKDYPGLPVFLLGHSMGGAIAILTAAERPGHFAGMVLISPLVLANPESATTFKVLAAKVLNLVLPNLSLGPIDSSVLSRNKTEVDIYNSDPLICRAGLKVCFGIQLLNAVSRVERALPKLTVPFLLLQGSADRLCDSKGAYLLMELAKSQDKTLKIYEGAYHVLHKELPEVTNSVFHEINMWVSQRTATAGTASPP
# Experiment: 2-AG assay: MAGL inhibitory activity by hydrolysis of 2-arachidonoylglycerol to arachidonic acid, followed by mass spectrometry
# Format: biochemical
# Conditions: 8 μM 2-arachidonoylglycerol, 15 min preincubation, 30 min reaction at RT, RapidFire MS readout
# Method in brief: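 MAGL was preincubated 15 min at RT with compound (12.5 to […], 3-fold steps) in 50 mM TRIS, 1 mM EDTA, 0.01% Tween-20, 2.5% DMSO. The reaction ran 30 min at RT with 8 μM 2-AG. Arachidonic acid was quantified by RapidFire SPE-MS/MS against a d8-arachidonic acid internal standard.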
row,SMILES,IC50 [nM]
1,"O=C(c1cccc(F)c1)N1CCN(C(=O)N2CC3(CC(c4nnc(C5CC5)[nH]4)C3)C2)CC1 [Example 979, [4-[6-(5-cyclopropyl-4H-1,2,4-triazol-3-yl)-2-azaspiro[3.3]heptane-2-carbonyl]piperazino]-(3-fluorophenyl)methanone]",2940
2,O=C(N1CC2(CC(NCc3ccc(C(F)(F)F)cc3F)C2)C1)N1CC2(CC(c3nnc(C4CC4)[nH]3)C2)C1 [compound 185],1.65
3,CS(=O)(=O)c1cc(C(F)(F)F)ccc1CC1CC2(C1)CN(C(=O)N1CC3(CC(c4nnc(C5(O)CC5)[nH]4)C3)C1)C2 [compound 40],0.4
4,O=C(N1CC2(CCC(Cc3ccc(Cl)cn3)CC2)C1)N1CC2(CC(c3nnc(C4CC4)[nH]3)C2)C1 [compound 138],0.3
5,N#Cc1cc(C(F)(F)F)ncc1O[C@H]1CCC2(C1)CN(C(=O)N1CC3(CC(c4nc(C5(O)CC5)n[nH]4)C3)C1)C2 [Example 696],42.2
6,O=C(N1CC2(CCC(Oc3ccc(C(F)(F)F)nn3)CC2)C1)N1CC2(CC(c3nnc(C4CC4)[nH]3)C2)C1 [compound 51],1.77
7,O=C(N1CC(c2ccc(NCC3(C(F)(F)F)CC3)nc2)C1)N1CC2(CC(c3nnc(C4CC4)[nH]3)C2)C1 [compound 253],0.14
8,O=C(N1CC2(CC(c3nnc(C4CC4)[nH]3)C2)C1)N1CC2(CN(Cc3ccc(F)cc3C(F)(F)F)C2)C1 [compound 169],0.62
9,O=C(N1CC2(CCN(S(=O)(=O)c3ccc(C(F)(F)F)cc3F)CC2)C1)N1CC2(CC(c3nnc(C4CC4)[nH]3)C2)C1 [compound 240],1.27
10,O=C(N1CC(c2ccc(N3CC(C(F)(F)F)C3)cc2)C1)N1CC2(CC(c3nnc(C4CC4)[nH]3)C2)C1 [compound 261],0.36
11,O=C(N1CC(c2ccc(CC(F)(F)F)cc2)C1)N1CC2(CC(c3nnc(C4(O)CC4)[nH]3)C2)C1 [compound 244],7.96
12,O=C(N1CC2(CCC(Cc3ccc(F)cn3)CC2)C1)N1CC2(CC(c3nnc(C4CC4)[nH]3)C2)C1 [compound 144],0.63
13,"O=C(N1CC2(CCN(Cc3cc(C(F)(F)F)no3)CC2)C1)N1CC2(CC(c3nc(C4CC4)n[nH]3)C2)C1 [Example 955, [6-(3-cyclopropyl-1H-1,2,4-triazol-5-yl)-2-azaspiro[3.3]heptan-2-yl]-[7-[[3-(trifluoromethyl)isoxazol-5-yl]methyl]-2,7-diazaspiro[3.5]nonan-2-yl]methanone]",23.1
14,COCn1ccnc1-c1ccccc1CN1CC2(C1)CN(C(=O)N1CC3(CC(c4nnc(C5CC5)[nH]4)C3)C1)C2 [compound 175],34.3
15,O=C(N1CC2(CC(c3nnc(C4(O)CC4)[nH]3)C2)C1)N1CC2(C1)CN(S(=O)(=O)c1cccc(C(F)(F)F)c1)C2 [compound 100],66.1
16,"O=C(N1CC(c2cnc(N3CC[C@H](C(F)(F)F)C3)nc2)C1)N1CC2(CC(c3nc(C4CC4)n[nH]3)C2)C1 (single isomer, unassigned) [compound 266]",2.93
17,"O=C(N1CCC(c2nn(C[C@@H](O)C(F)(F)F)c3ccc(Cl)cc23)CC1)N1CC2(CC(c3nnc(C4CC4)[nH]3)C2)C1 [Example 865, [4-[5-chloro-1-[(2R)-3,3,3-trifluoro-2-hydroxy-propyl]indazol-3-yl]piperidino]-[6-(5-cyclopropyl-4H-1,2,4-triazol-3-yl)-2-azaspiro[3.3]heptan-2-yl]methanone]",19.4
18,O=C(N1CC2(CC(c3nnc(C4CC4)[nH]3)C2)C1)N1CC2(CC[C@H](Oc3cnc(C(F)(F)F)cn3)C2)C1 [compound 90],7.88
19,O=C(N1CC(c2ccc(OC(F)(F)F)c(F)c2)C1)N1CC2(CC(c3nnc(C4(O)CC4)[nH]3)C2)C1 [compound 242],2.23
20,O=C(N1CC2(CC(c3nnc(C4CC4)[nH]3)C2)C1)N1CC2(CN(Cc3cnc(C(F)(F)F)cn3)C2)C1 [compound 164],18.3
21,O=C(N1CC2(CCN(Cc3ccc(C(F)(F)F)cc3F)CC2)C1)N1CC2(CC(c3nnc(C4CC4)[nH]3)C2)C1 [compound 177],0.38
22,"Cc1csc(CN2CC3(C2)CN(C(=O)N2CC4(CC(c5nnc(C6CC6)[nH]5)C4)C2)C3)n1 [Example 895, [6-(5-cyclopropyl-4H-1,2,4-triazol-3-yl)-2-azaspiro[3.3]heptan-2-yl]-[6-[(4-methylthiazol-2-yl)methyl]-2,6-diazaspiro[3.3]heptan-2-yl]methanone]",23.5
23,O=C(N1CC2(CC(Cc3ccc(C(F)(F)F)nn3)C2)C1)N1CC2(CC(c3nnc(C4(O)CC4)[nH]3)C2)C1 [compound 23],4.43
24,O=C(N1CC(NCc2cc(Cl)cc(C(F)(F)F)c2)C1)N1CC2(CC(c3nnc(C4CC4)[nH]3)C2)C1 [compound 194],18.4
25,N=S(=O)(c1ccc(CC2CC3(C2)CN(C(=O)N2CC4(CC(c5nc(C6CC6)n[nH]5)C4)C2)C3)cc1)C(F)(F)F (stereo not drawn) [compound 2],0.19
26,"N=[S@](=O)(c1ccc(CC2CC3(C2)CN(C(=O)N2CC4(CC(c5nnc(C6CC6)[nH]5)C4)C2)C3)cc1)C(F)(F)F (single isomer, unassigned) [compound 129]",0.1

# The remaining lines, values ahead:
row,IC50 [nM],SMILES
1,1.75,O=C(N1CC2(CC(Cn3cc(C(F)(F)F)ccc3=O)C2)C1)N1CC2(CC(c3nc(C4CC4)n[nH]3)C2)C1 [compound 406]
2,412,Cn1ncc(C(F)(F)F)c1CN1CC2(C1)CN(C(=O)N1CC3(CC(c4nc(C5CC(F)(F)C5)n[nH]4)C3)C1)C2 [compound 658]
3,2.22,CC(C)(C)Cc1nnc(C23CC(C4CN(C(=O)N5CC6(CC(c7nc(C8CC8)n[nH]7)C6)C5)C4)(C2)C3)s1 [compound 581]
4,38.4,O=C(N1CC2(CC(c3nnc(C4CC4)[nH]3)C2)C1)N1CC2(C1)CN(c1ccc(C(F)(F)F)cn1)C2 [compound 682]
5,408,O=C(N1CC2(CC(c3nc(C4CC4)n[nH]3)C2)C1)N1CC2(CN(Cc3cnn(CC(F)(F)F)c3)C2)C1 [compound 568]
6,3.43,CS(=O)(=O)c1ccc(Cl)cc1OC1CCC2(CC1)CN(C(=O)N1CC3(CC(c4nnc(C5CC5)[nH]4)C3)C1)C2 [compound 350]
7,0.45,O=C(N1CC(c2ccc(N3CCC4(C3)CC4(F)F)nc2)C1)N1CC2(CC(c3nnc(C4CC4)[nH]3)C2)C1 (stereo not drawn) [compound 289]
8,1.69,O=C(N1CC(c2ccc([C@H]3C[C@H](C(F)F)C3)nc2)C1)N1CC2(CC(c3nnc(C4CC4)[nH]3)C2)C1 [compound 301]
9,209,Cc1nc(CN2CC3(C2)CN(C(=O)N2CC4(CC(c5nnc(C6CC6)[nH]5)C4)C2)C3)cs1 [compound 896]
10,0.21,N=S(=O)(c1cccc(CC2CC3(C2)CN(C(=O)N2CC4(CC(c5nc(C6(O)CC6)n[nH]5)C4)C2)C3)c1)C(F)(F)F (stereo not drawn) [compound 532]
11,0.71,O=C(N1CC2(CC(Cn3ccc(C(F)(F)F)n3)C2)C1)N1CC2(CC(c3nc(C4CC4)n[nH]3)C2)C1 [compound 844]
12,17.6,CS(=O)(=O)c1ccc(CC2CC3(C2)CN(C(=O)N2CC4(CC(c5nc(C(F)(F)F)n[nH]5)C4)C2)C3)cc1 [compound 791]
13,0.23,O=C(N1CC2(CC(Oc3ncc(C(F)(F)F)cc3F)C2)C1)N1CC2(CC(c3nc(C4CC4)n[nH]3)C2)C1 [compound 665]
14,5.47,O=C(N1CC2(CC(Cc3ccc(F)cc3F)C2)C1)N1CC2(CC(c3nc(C4CC(F)(F)C4)n[nH]3)C2)C1 [compound 586]
15,40.4,Cc1cc(C2CC2)n(C23CC(C4CN(C(=O)N5CC6(CC(c7nc(C8(O)CC8)n[nH]7)C6)C5)C4)(C2)C3)n1 [compound 588]
16,22.9,CC(C)(C)Cc1nnc(C23CC(C4CN(C(=O)N5CC6(CC(c7nc(C8(O)CC8)n[nH]7)C6)C5)C4)(C2)C3)s1 [compound 466]
17,26.4,O=C(N1CC2(CC(c3nc(C4CC4)n[nH]3)C2)C1)N1CC2(CN(Cc3ccn(C(F)(F)F)n3)C2)C1 [compound 601]
18,2210,O=C(N1CC(c2cnc(N3CC(C(F)(F)F)C3)nc2)C1)N1CC2(CC(c3nc(C4CC(F)(F)C4)n[nH]3)C2)C1 [compound 978]
19,0.75,O=C(N1CC2(CC(Cc3nccc(C(F)(F)F)n3)C2)C1)N1CC2(CC(c3nc(C4CC4)n[nH]3)C2)C1 [compound 403]
20,95.1,O=C(N1CC2(CC(c3nc(C4CC4)n[nH]3)C2)C1)N1CC2(CN(Cc3ccn(CC(F)(F)F)n3)C2)C1 [compound 618]
21,3.16,CS(=O)(=O)c1cc(C2CN(C(=O)N3CC4(CC(c5nnc(C6CC6)[nH]5)C4)C3)C2)ccc1C1CCC1 [compound 297]
22,9.68,CS(=O)(=O)C1(c2ccc(C3CN(C(=O)N4CC5(CC(c6nc(C7(O)CC7)n[nH]6)C5)C4)C3)cc2)CC1 [compound 790]
23,2.09,CN(c1ccccc1)c1ccc(C2CN(C(=O)N3CC4(CC(c5nnc(C6CC6)[nH]5)C4)C3)C2)cn1 [compound 383]
24,1.74,CS(=N)(=O)c1ccc(CC2CC3(C2)CN(C(=O)N2CC4(CC(c5nc(C6CC6)n[nH]5)C4)C2)C3)cc1C(F)(F)F (stereo not drawn) [compound 952]
25,5.16,"O=C(N1CC(c2ccc(N3CCC(C(F)(F)F)CC3=O)cc2)C1)N1CC2(CC(c3nnc(C4CC4)[nH]3)C2)C1 (single isomer, unassigned) [compound 279]"
26,2.85,O=C(N1CC2(CC(c3nnc(C4CC4)[nH]3)C2)C1)N1CC2(CN(Cc3nc(-c4ccccc4)no3)C2)C1 [compound 888]
27,3.37,O=C(N1CC2(CC(c3nc(C4CC4)n[nH]3)C2)C1)N1CC2(CN(Cc3nc(C(F)(F)F)cs3)C2)C1 [compound 780]
28,0.04,O=C(N1CC(C23CC(COc4ccc(C(F)(F)F)cn4)(C2)C3)C1)N1CC2(CC(c3nc(C4CC4)n[nH]3)C2)C1 [compound 941]
